The text below walks through data of ChEMBL document CHEMBL3507680, “University of Dundee, Gates Library screen for HepG2 cell viability”.

A short description of this series: Human HepG2 cell viability assay in 384 well format. More on the design: dose 125 nL, time 70.5 hour; cytotoxicity at 70.5 h: concentration not given beside the values. The class given is toxicity, cell-based. The following applies: HepG2 cells, read-out: Inhibition.
In the case of `CN(Cc1cccnc1)CC1CNCc2nccn2C1` (stereo not given), the cytotoxicity at 70.5 h amounted to 4.1%.

Turning to `Cc1cccc(C(=O)N2CCc3c(COCC4CC4)cncc3C2)n1`, the cytotoxicity at 70.5 h is -10.4%.

For `O=C(c1ccoc1)N1CCc2c(COCC3CC3)cncc2C1`, the cytotoxicity at 70.5 h is 14.9%.

Take `CN(C)C(=O)NC1COC2(CCN(Cc3ccco3)CC2)C1` (stereo not given): the cytotoxicity at 70.5 h was -12.8%.

As for `CN(C)C(=O)NC1COC2(CCN(S(=O)(=O)c3ccccc3)CC2)C1` (stereo not given), the cytotoxicity at 70.5 h is -10.3%.

As to `O=C(O)c1cc2c(nc1-c1ccncc1)CCN(Cc1ccoc1)CC2`, the cytotoxicity at 70.5 h is -7.98%.

With `CO[C@H]1CCN(Cc2nccs2)C[C@@H]1Cc1ccccc1`, the cytotoxicity at 70.5 h was -0.233%.

On to `Cc1ccc(N2C[C@H]3OCC[C@H]3[C@H](C(=O)NC3CCC3)C2)nn1`, for which the cytotoxicity at 70.5 h is -13%.

`CN(C)C(=O)c1cnc2n1CCN(Cc1ccncc1)C2`: the cytotoxicity at 70.5 h came to 19.9%.

As for `COCCC(=O)N1CCC2(COCc3cnc(N(C)C)nc32)C1` (stereo not given), the cytotoxicity at 70.5 h was -8.65%.

Take `CN1CCCC2(CC1)CCN(C(=O)CCc1ccccc1F)CC2`: the cytotoxicity at 70.5 h was -6.92%.

In the case of `CSc1cccc(CN(C)C(=O)c2cccc(C3CCCNC3)c2)c1` (stereo not given), the cytotoxicity at 70.5 h is -2.36%.

Take `CN(CCCC1CCCO1)C(=O)c1cccc(C#N)c1` (stereo not given): the cytotoxicity at 70.5 h was -5.92%.

`O=C(N[C@H]1CC[C@H](O)CC1)c1ccc2nc(-c3ccc(F)cc3)cn2c1`: the cytotoxicity at 70.5 h was -9.74%.

For `COc1ccc(CN2CC[C@@]3(O)CCCC[C@H]3C2)cc1C(=O)O`, the cytotoxicity at 70.5 h was 8.88%.

For `CC(C)O[C@H]1CN(C(=O)CCN2CCCCO2)C[C@@H]1O`, the cytotoxicity at 70.5 h was determined as 11.2%.

`Cc1cc(CC(C)Nc2ncc(C)c(N(C)C)n2)[nH]n1` (stereo not given): the cytotoxicity at 70.5 h is -1.49%.

As to `CC(C)Cc1noc(CN(C)c2ncccn2)n1`, the cytotoxicity at 70.5 h was -3.77%.

For the compound `CCc1cc(NCCc2cccnc2)n2nc(C)c(C)c2n1`, the cytotoxicity at 70.5 h is -5.81%.

Turning to `CCc1ncc(CN2C[C@H]3CC[C@@H]2CN(C(=O)C2CCC2)C3)cn1`, the cytotoxicity at 70.5 h was -6.96%.

Consider `CCCN1CCCn2nc(CNS(=O)(=O)c3cnn(CC)c3)cc2C1`, for which the cytotoxicity at 70.5 h was -3.06%.

For the compound `COc1ccccc1CN1C(=O)O[C@@H]2CN(c3nc(C)cnc3C)C[C@@H]21`, the cytotoxicity at 70.5 h is -3.32%.

On to `CCOc1ccccc1CC(=O)N1C[C@H](C2CC2)[C@@H](N)C1`, for which the cytotoxicity at 70.5 h is -0.519%.

For `CCc1nnc(CN(C)c2nccc(N3CCCC(O)C3)n2)o1` (stereo not given), the cytotoxicity at 70.5 h amounted to 27.2%.

Take `Cc1cc(F)c(C(C(=O)O)N2CCN(Cc3ccccn3)CC2)cc1Cl` (stereo not given): the cytotoxicity at 70.5 h is -6.6%.

With `CCc1cc(NC(CCO)c2ccc(OC)cc2)n2nccc2n1` (stereo not given), the cytotoxicity at 70.5 h was -0.73%.

As for `C[C@@H]1CN(C2Cc3ccccc3C2)CC[C@@]1(O)C1CCOCC1`, the cytotoxicity at 70.5 h is -10.1%.

Regarding `CN(CC(=O)N1CC(C)(C)[C@@](C)(O)C1)Cc1ccncc1`, the cytotoxicity at 70.5 h is -6.29%.

Regarding `CCCn1cc(-c2cc(C(=O)N(C)C)c3ccc(OC)cc3n2)cn1`, the cytotoxicity at 70.5 h is -3.58%.

For the compound `CC(C)C1CN(S(C)(=O)=O)CCCN1Cc1ccc(F)cc1` (stereo not given), the cytotoxicity at 70.5 h was -3.17%.

Regarding `CC(C)[C@H]1CN(CC2CCC2)C[C@@H]1NC(=O)c1ccc(=O)[nH]c1`, the cytotoxicity at 70.5 h was 3.69%.

On to `Cc1cc(NCCc2nc(C)c[nH]2)nc(-c2ccccc2O)n1`, for which the cytotoxicity at 70.5 h was -1.72%.

With `CN(C)c1ccc(C(=O)N2CCCN(C3CCCCC3)CC2)cn1`, the cytotoxicity at 70.5 h was -7.27%.

Take `CN(Cc1ccc(-n2cccn2)cc1)Cc1cnc(N(C)C)nc1`: the cytotoxicity at 70.5 h was -8.45%.

On to `CC(C)=CCN1CCN(C(=O)c2cc(C(C)C)on2)[C@H]2CS(=O)(=O)C[C@H]21`, for which the cytotoxicity at 70.5 h is -8.01%.

Turning to `O=C1NC2(CCN(Cc3ccccc3Cl)CC2)CC1c1ccccc1` (stereo not given), the cytotoxicity at 70.5 h was -9.33%.

Regarding `CCCN1CCC(Cc2noc(-c3ncccc3C)n2)CC1`, the cytotoxicity at 70.5 h is -5.81%.

As to `OC1(CN2CCCC2)COCCN(c2ncnc3[nH]cnc23)C1` (stereo not given), the cytotoxicity at 70.5 h is -0.684%.

Consider `CC(C)=CCN1CCC(c2nnc(CN3CCN(C)CC3)n2C)CC1`, for which the cytotoxicity at 70.5 h was found to be 35%.

`O=C1CCOCCN1Cc1ccc(Cl)c(Cl)c1`: the cytotoxicity at 70.5 h was determined as 33.5%.

As to `Cc1ccccc1OC1CN(Cc2c(C)nc3ccccn23)C1`, the cytotoxicity at 70.5 h was found to be 26.8%.

As to `O=C(NCC1(O)CCCCC1)c1coc(COc2cccc(F)c2)n1`, the cytotoxicity at 70.5 h worked out at 1.09%.

As for `Fc1cccc(-c2n[nH]cc2-c2nc(CN3CCOCC3)no2)c1`, the cytotoxicity at 70.5 h came out at 15.5%.

For `CSc1ccc(C(=O)N2C[C@H]3CC[C@@H]2CN(Cc2cccnc2)C3)cc1`, the cytotoxicity at 70.5 h is -5.35%.

On to `O=C(C1CC(=O)N(C2CC2)C1)N1CCC(Oc2ccccc2Cl)CC1` (stereo not given), for which the cytotoxicity at 70.5 h is 0.0694%.

As for `O=C(NCC1CCCN(C(=O)NCCc2ccccc2)C1)c1ccco1` (stereo not given), the cytotoxicity at 70.5 h was -0.863%.

Consider `Cc1nnc(NCCn2nc(C)c(Cl)c2C)o1`, for which the cytotoxicity at 70.5 h is -6.66%.

On to `Cc1nnc(SCCNC(=O)CC2CCc3ccccc32)s1` (stereo not given), for which the cytotoxicity at 70.5 h is -4.12%.

On to `CCCn1nccc1S(=O)(=O)N1CCC2(CCCN(C(C)C)C2=O)C1` (stereo not given), for which the cytotoxicity at 70.5 h is 17.4%.

`COc1cccc(-c2cc(C(=O)NCCCn3cnnc3)[nH]n2)c1`: the cytotoxicity at 70.5 h was -11.1%.

With `CCOc1cc(CNCc2nc(C)cc(=O)[nH]2)c(Cl)cc1OC(C)C`, the cytotoxicity at 70.5 h was -3.61%.

As for `O=C1COc2ccccc2N1CCCn1cnnn1`, the cytotoxicity at 70.5 h was -9.54%.

As for `O=C1CCC2(CCCN(C(=O)c3ncc[nH]3)C2)CN1CCc1c[nH]cn1` (stereo not given), the cytotoxicity at 70.5 h was 13.6%.

Regarding `CN1CCC(N(C)CCC(=O)N2CCC(Oc3ccc(Cl)cc3)CC2)C1` (stereo not given), the cytotoxicity at 70.5 h was -5.97%.

With `Cn1cc(Cl)c(CN(Cc2ccsc2)CC2CCCO2)n1` (stereo not given), the cytotoxicity at 70.5 h was -5.58%.

Consider `COCCN1CCC(C(=O)N(C)Cc2c[nH]c3ccc(C)cc23)C1` (stereo not given), for which the cytotoxicity at 70.5 h was -8.11%.

As for `OC[C@H]1CN(Cc2c(Cl)cncc2Cl)C[C@H]1CN1CCCC1`, the cytotoxicity at 70.5 h was -9.31%.

On to `CS(=O)(=O)c1ncc(CN2CCN3CCCC3C2)n1CC1CCCCC1` (stereo not given), for which the cytotoxicity at 70.5 h was -6.4%.

Take `Cc1cc(NC(=O)CNCc2csc(-c3cnccn3)n2)ccc1Cl`: the cytotoxicity at 70.5 h is -6.43%.

For the compound `CC(C)c1cc(C(=O)NCC2CCCN(c3ncccn3)C2)n(C)n1` (stereo not given), the cytotoxicity at 70.5 h is -5.82%.

Take `O=C1NCCCCC1NC(=O)C1(Oc2ccc(Cl)cc2)CCNCC1` (stereo not given): the cytotoxicity at 70.5 h is -7.72%.

Regarding `Cc1ccc2nc(C(=O)N3CC(c4cccnc4)C3)cn2c1`, the cytotoxicity at 70.5 h was -6.09%.

As for `COCCN1C[C@H](NC(=O)CCC(F)(F)F)[C@@H](C(C)C)C1`, the cytotoxicity at 70.5 h is -2.58%.

On to `NC(=O)c1cn2cc(-c3ccccc3Cl)n(CC3CC3)c(=O)c2n1`, for which the cytotoxicity at 70.5 h is -9.1%.

For the compound `NCCc1nc(N(Cc2cncs2)C2CC2)c2ccccc2n1`, the cytotoxicity at 70.5 h stood at 24.1%.

Turning to `Cc1cc(C)n(CCCC(=O)N2CC[C@H]3NCCC[C@]3(CO)C2)n1`, the cytotoxicity at 70.5 h is -2.14%.

For `CC(=O)Nc1ccc2nc(-c3nccn3C[C@@H]3CCCO3)ccc2c1`, the cytotoxicity at 70.5 h is -11.8%.

As for `COCCN(Cc1sccc1C)C(=O)COc1ccccc1O`, the cytotoxicity at 70.5 h was -4.7%.

On to `CCn1c(Cn2cccn2)nnc1C1CCN(Cc2ccc(C)o2)CC1`, for which the cytotoxicity at 70.5 h worked out at 19.3%.

Regarding `Cc1ccc(C(F)(F)F)cc1C(=O)N[C@H]1CN(CCO)C[C@@H]1C1CC1`, the cytotoxicity at 70.5 h was -3.09%.

On to `Cc1cc(N(C)CCCn2cccn2)nc(N)n1`, for which the cytotoxicity at 70.5 h was -12.7%.

For `COc1ccc(F)c(CNC2CCCc3nc(N(C)C)ncc32)c1` (stereo not given), the cytotoxicity at 70.5 h is -11.5%.

In the case of `OC1(CNCc2noc(Cc3ccccc3)n2)CNCCOC1` (stereo not given), the cytotoxicity at 70.5 h was -4.33%.

As to `CCN(CC)C(=O)N1CCN(Cc2cnc(C)nc2)[C@H]2CS(=O)(=O)C[C@H]21`, the cytotoxicity at 70.5 h was -17.5%.

As for `CCN(Cc1nc(COC)no1)Cc1cc2ccc(F)cc2[nH]c1=O`, the cytotoxicity at 70.5 h is -12.1%.

As for `CCC(C)Oc1ccc(CNCCNC(C)=O)cc1OC` (stereo not given), the cytotoxicity at 70.5 h is -6.94%.

In the case of `CN(C)C(=O)N1CC2(CCNCC2)c2cc(Cl)ccc21`, the cytotoxicity at 70.5 h was 24.1%.

As to `O=C(NC1CC1)N1CCn2c(Cn3cccn3)cnc2C1`, the cytotoxicity at 70.5 h was -5.68%.

Consider `CCOCC1CN(C(=O)Cc2ccsc2)Cc2ccnn2C1` (stereo not given), for which the cytotoxicity at 70.5 h was -6.83%.

Consider `O=C1CC(c2ccncc2)C2(CCN(C(=O)c3cccs3)CC2)N1` (stereo not given), for which the cytotoxicity at 70.5 h was 43.8%.

As for `Cn1cnc2c1C(COCC1CCOCC1)CN(C(=O)c1ccco1)C2` (stereo not given), the cytotoxicity at 70.5 h was -8.23%.

`Cc1ccccc1C(=O)N1C[C@@H]2CCN(c3cccnc3)C[C@@H]2C1`: the cytotoxicity at 70.5 h was -4.88%.

As to `O=C(c1ccc(F)cc1)N1C[C@@H]2CCN(c3cccnc3)C[C@@H]2C1`, the cytotoxicity at 70.5 h is -11.2%.

On to `Cc1ccc(C(=O)N2C[C@@H]3CCN(c4cccnc4)C[C@@H]3C2)cn1`, for which the cytotoxicity at 70.5 h is -12.4%.

On to `O=C(C1CCCC1)N1C[C@@H]2CCN(c3cccnc3)C[C@@H]2C1`, for which the cytotoxicity at 70.5 h was -11.4%.

Regarding `CCS(=O)(=O)N1Cc2ncn(C)c2C(COCC2CCOCC2)C1` (stereo not given), the cytotoxicity at 70.5 h is -3.96%.

Turning to `Cn1cnc2c1C(COCC1CCOCC1)CN(C(=O)C1CC=CC1)C2` (stereo not given), the cytotoxicity at 70.5 h was -2.11%.

On to `Cc1ccc(N2C[C@H](C(=O)NCC3CC3)[C@@H]3CCO[C@@H]3C2)nn1`, for which the cytotoxicity at 70.5 h was -9.32%.

On to `Cc1nc[nH]c1CN1C[C@@H]2OCCN(c3ncccn3)[C@@H]2C1`, for which the cytotoxicity at 70.5 h was -10.6%.

As for `CN(C)C(=O)CN1C(=O)C[C@@H]2[C@@H]1CCN2Cc1cccc(C#N)c1`, the cytotoxicity at 70.5 h is 6.8%.

On to `CN(C)C(=O)c1cnc2n1CCN(Cc1ccsc1)C2`, for which the cytotoxicity at 70.5 h is 2.92%.

For `c1ccc(CN2CCc3ncnc(-c4ccncc4)c3CC2)nc1`, the cytotoxicity at 70.5 h amounted to 22.4%.

Take `Cc1ccc(CN2CC[C@H]3C(=O)N(Cc4cccnc4)CCO[C@H]3C2)o1`: the cytotoxicity at 70.5 h is -8.65%.

In the case of `CN(C)[C@@H]1CCN(C(=O)c2ccsc2)[C@H]1Cc1cccnc1`, the cytotoxicity at 70.5 h was 2.91%.

`Cn1cnc2c1C(COCC1CCOCC1)CN(Cc1ccccn1)C2` (stereo not given): the cytotoxicity at 70.5 h is -15.9%.
